Data: US11324209B2, “Composition to promote migration of acarids” (ACAR'UP SPRL, priority 2017, dated 2022)
“And” between values parts separate entries of the source, which are not always exact repeats. Equal entries are not always repeated.

Columns and labels:
[1] = tested on: Dermatophagoides pteronyssinus; test: Binary choice test of mites between tested felt and control felt in a Petri dish; assay type: in vivo; parameters: key to stat Test: Stat diff: statistically different; NS: not significant; conditions: for Mean (binary choice of dust mites, tested felt) / stat Test: control felt + 1 μL H2O
Method: Aim of the experiments: All experiments are tests of binary choice aiming to determine the preference of mites and the place where they prefer to stay (at least for 30 min).
Rearing: The species studied was Dermatophagoides pteronyssinus, a dust mite common in mattresses in Eurasia. Mites are reared in Petri dishes and fed with human skin flakes (skin and whiskers obtained by cleaning electric shavers). All mites were reared together under defined conditions (20° C. and 75% relative humidity). The experiments took place in a room kept at 20° C. and 40% relative humidity.
Materials and methods: A group of mites (20<n<40) was placed in the centre of a Petri dish (∅=5.5 cm) around which two semi-circles of felt were placed (see FIG. 1). The pieces of felts were 70 mg/cm^2, their thickness was 2 mm. One felt is the control (control felt); the other felt is the felt with the tested item, for instance the felt that is impregnated with a chemical compound that is tested.
Mites move spontaneously towards one of the two felts.
Observations and counting of mites was made under binocular microscope (magnification 10*). The set-up is illuminated with a cold lamp (KL 1500 LCD, Schott®), the lighting is symmetric and the light intensity was 50 Klux. The experimental conditions were controlled in the room (T° C.: 19-22° C. and RH 40%).
Aim of the experiments: In the experiments, the tested felt was impregnated with chemicals that may be chemical acarid attractants.
Different compounds were tested: Citral, limonene, α-pinene, eucalyptol, lavendulol, polysorbate 20. Dust mites were attracted to the dilute citral (10^−6) but the citral 10^−3 is repellent. The limonene (dil. 10^−5) and the α-pinene (dil. 10^−6) were attractive for mites.

[2] = Shelf life and storage of the aqueous solution, citral and limonene by GC; assay type: physicochemical
Method: Finding an appropriate storage material. Verifying the presence of volatile attractive molecules in fresh solutions (freshly produced, 1 day old) and stored solutions (8-12 months). Determining the quantity of those attractive molecules in said solutions, and thus allowing to follow said solutions' chemical profiles within time.
An aqueous solution of 3.5 ng/μL essential oil from Melissa officinalis, 3.6 ng/μL essential oil from Cymbopogon flexuosus citraliferum and 5 ng/μL polysorbate 20 was produced, bottled and stored.
Bottle material test: Two types of 100-ml bottles were tested. A plastic and an aluminum bottle were produced (20 bottles for each material). The bottles were stored 1 month, and then tested for the presence of citral.
Long term shelf life test: 38 bottled solutions (stored 8-12 months) and 11 bottled fresh solutions (stored 1 day) were tested to compare the presence and quantity of citral and limonene.
Quantitative measurements for citral and limonene were done by gas chromatography (GC). These are well known in the art. The essential oils were extracted from 25 ml of said bottled solution using 2 ml of n-hexane (LC-MS or HPLC grade). A sample of (1 μl) of the n-hexane extract was injected in the GC-MS equipped with a mass detector and using an OPTIMA-5MS capillary column (30 m, 0.25 mm I.D., […]). Programmed temperature elution was employed with an initial temperature of 40° C., then ramped to 280° C. at 8° C./min and held at 280° C. for 5 min. Helium was used as the carrier gas. Electron impact ionization was performed using an electron energy of 70 eV and a mass range of 40-800 m/z.

acarids = test: Acarid migration tests of attraction enhancers alone and with limonene (description); assay type: in vivo; conditions: for acarid attracting effect when used alone: low doses
[3] = tested on: Dermatophagoides pteronyssinus; test: Trap test on infested mini-mattresses with sprayed felt, mites counted via Berlese funnel; assay type: in vivo; conditions: felt 100% polyester; 4 ml/200 cm^2; drying + exposure 0 h + 2 h; dilution 0.00001
Method: Rearing: The species studied was Dermatophagoides pteronyssinus, a dust mite common in mattresses in Eurasia. Mites are reared in Petri dishes and fed with human skin flakes (skin and whiskers obtained by cleaning electric […]). All mites were reared together under defined conditions (20° C. and 75% relative humidity). The experiments took place in a room kept at 20° C. and 40% relative humidity. Aim of the experiments: The aim was to test the trap in condition similar to the conditions that will be met by the user of the trap. Materials and methods: The mattresses were built at a smaller scale (15× reduction) than usual mattresses. These mini-mattresses are made in polyurethane and covered by a cover in cotton. […] The fabric was a felt of 20 mg/cm^2 and is a rectangle of 10 cm×20 cm. It was placed on the mini-mattress. Then the attractive solution was sprayed on the fabric with a spray bottle. The fabric was left in place on the mattress. During this time, the mites moved in the felt. It is very difficult to count directly the mites hidden in the mattress and in the fabric. Therefore, we used a Berlese funnel which is a device that is usually used to separate insects from litter. Here, we used it to separate the mites form their mattress or from the fabric. […] The jar was emptied into a Petri dish and we counted mites under binocular. […]

[4] = Aluminium bottle, stored 1 month
[5] = blue felt + 1 μL, dil 10^−6, control white felt + 1 μL H2O
[6] = felt + 1 μL of Citral-0 (dilution not given)

polyoxyethylene (20) sorbitan monolaurate [Polysorbate 20]
effect on dust mites ([1]; dilution not stated): no statistically significant effect | Mean (binary choice of dust mites, tested felt) ([1]; felt + 1 μL, dilution 10^−6): 0.50 and 0.53 | stat Test ([1]; felt + 1 μL, dilution 10^−6): NS

CC(C)=CCC/C(C)=C\C=O [Neral]
content in the bottled aqueous solution (bottle material test) [2, 4]: 12.68% ± 0.18 | content in the bottled aqueous solution (bottle material test) ([2]; Plastic bottle, stored 1 month): 12.63% ± 0.59

CC(C)=CCCC(C)CC=O (centres unmarked) [Citronellal, 3,7-dimethyloct-6-en-1-al]
acarid attracting effect when used alone (acarids): mild acarid attractant | migrated population (acarids; tested with limonene for long contact times): ~1

C=C(C)[C@H](CO)CC=C(C)C [Lavendulol]
effect on dust mites ([1]; dilution not stated): no statistically significant effect | Mean (binary choice of dust mites, tested felt) ([1]; felt + 1 μL, dilution 10^−6): 0.46 and 0.51 | stat Test ([1]; felt + 1 μL, dilution 10^−6): NS

CC1=CC[C@H]2C[C@@H]1C2(C)C [α-pinene, (15,55)-2,6,6-trimethylbicyclo[3.1.1]hept-2-ene]
effect on dust mites ([1]; dilution 10^−6): attractive | Mean (binary choice of dust mites, tested felt) ([1]; felt + 1 μL, dil. 10^−5): 0.45 | stat Test ([1]; felt + 1 μL, dil. 10^−5): NS | Mean (binary choice of dust mites, tested felt) ([1]; felt + 1 μL, dilution 10^−6): 0.58 | stat Test ([1]; felt + 1 μL, dilution 10^−6): Stat diff

C=C(C)C1CC=C(C)CC1 (centres unmarked) [Limonene, 1-methyl-4-(1-methylethenyl)-cyclohexene]
effect on dust mites ([1]; dil. 10^−5): attractive | Mean (binary choice of dust mites, tested felt) ([1]; felt + 1 μL, dil. 10^−5): 0.61 | stat Test ([1]; felt + 1 μL, dil. 10^−5): Stat diff | Mean (binary choice of dust mites, tested felt) ([1]; felt + 1 μL, dilution 10^−6): 0.48 | stat Test ([1]; felt + 1 μL, dilution 10^−6): NS

C=CC(C)(O)CCC=C(C)C (centres unmarked) [Linalool, 3,7-dimethyl-1,6-octadien-3-ol]
acarid attracting effect when used alone (acarids): did not appear to have a significant attracting effect | effect in combination with limonene (acarids; combined with limonene and other attractants): significant increase in the migrated population

CC12CCC(CC1)C(C)(C)O2 [Eucalyptol, 1,3,3-Trimethyl-2-oxabicyclo [2.2.2.]octane]
effect on dust mites ([1]; dilution not stated): no statistically significant effect | Mean (binary choice of dust mites, tested felt) ([1]; felt + 1 μL, dilution 10^−6): 0.48 and 0.51 | stat Test ([1]; felt + 1 μL, dilution 10^−6): NS

CC(C)=CCCC(C)=CC=O [Citral, 3,7-dimethyl-2,6-octadienal]
Mean (compound and color) [1, 5]: 0.84 | Test stat (compound and color) [1, 5]: diff stat | migration of the mites toward the blue felt ([1]; blue felt in combination with citral): 84% | effect on dust mites ([1]; dilution 10^−3): repellent | effect on dust mites ([1]; dilution 10^−6): attracted | Mean (binary choice of dust mites, tested felt) [1, 6]: 0.03 | stat Test [1, 6]: Stat diff | Mean (binary choice of dust mites, tested felt) ([1]; felt + 1 μL, dil 10^−3): 0.23 | stat Test ([1]; felt + 1 μL, dil 10^−3): Stat diff | Mean (binary choice of dust mites, tested felt) ([1]; felt + 1 μL, dilution 10^−6): 0.72 | stat Test ([1]; felt + 1 μL, dilution 10^−6): Stat diff | concentration in stored solutions (mean ± St. Dev.) / detection ([2]; 38 solutions, 8-12 months after production): not detected | presence in bottled solution (bottle material test) ([2]; plastic and aluminium bottles, stored 1 month): present in each sample analysed | trapped living mites [3]: 17%

CC(C)=CCC/C(C)=C/C=O [Geranial]
content in the bottled aqueous solution (bottle material test) [2, 4]: 12.56% ± 1.79 | content in the bottled aqueous solution (bottle material test) ([2]; Plastic bottle, stored 1 month): 13.03% ± 1.25
